Patent US20240158352A1, “NOVEL ADAMANTYL DERIVATIVE OR PHARMACEUTICALLY ACCEPTABLE SALT THEREOF, AND USE THEREOF” (CAN-Therapy Inc., priority 2021, published 2024)

Legend:
DPP4 (human recombinant) = biological target: T1, DPP4 (human recombinant) (Homo sapiens, UniProt P27487); assay: DPP4 screening assay (Abcam 133081 kit, Gly-Pro-AMC fluorescent substrate); format: biochemical; settings: FIG. 1; for DPP4 inhibitory activity: treated at 1 μM, 100 nM, 10 nM, 1 nM and 100 pM, 37° C., 30 minutes
T1 construct: purchased Abcam (Boston, USA) 133081
T1 sequence (P27487 whole entry): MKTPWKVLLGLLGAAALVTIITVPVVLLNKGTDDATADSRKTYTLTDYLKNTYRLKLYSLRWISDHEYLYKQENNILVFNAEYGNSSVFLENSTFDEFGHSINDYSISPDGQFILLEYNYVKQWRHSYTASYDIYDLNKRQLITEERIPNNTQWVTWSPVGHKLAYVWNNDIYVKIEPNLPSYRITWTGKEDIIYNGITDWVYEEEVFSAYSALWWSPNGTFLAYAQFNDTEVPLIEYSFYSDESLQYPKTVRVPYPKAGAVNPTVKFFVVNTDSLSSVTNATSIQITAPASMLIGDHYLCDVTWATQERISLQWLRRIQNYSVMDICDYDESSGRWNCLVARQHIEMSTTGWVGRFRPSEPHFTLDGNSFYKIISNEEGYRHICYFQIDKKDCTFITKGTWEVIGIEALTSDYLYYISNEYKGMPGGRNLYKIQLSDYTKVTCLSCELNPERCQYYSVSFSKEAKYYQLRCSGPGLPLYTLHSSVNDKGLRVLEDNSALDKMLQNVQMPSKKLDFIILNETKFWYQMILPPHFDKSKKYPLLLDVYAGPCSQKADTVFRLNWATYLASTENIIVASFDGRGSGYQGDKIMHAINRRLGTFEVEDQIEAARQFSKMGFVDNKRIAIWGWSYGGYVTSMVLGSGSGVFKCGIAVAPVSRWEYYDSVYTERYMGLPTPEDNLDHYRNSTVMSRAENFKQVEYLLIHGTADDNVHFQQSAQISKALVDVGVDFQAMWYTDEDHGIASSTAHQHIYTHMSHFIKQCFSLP
Method: DPP4 screening assay was performed to identify the DPP4 inhibitory activity of the adamantyl derivatives KUgt-102 and KUgt-103 of the present disclosure. Abcam (Boston, USA) 133081 was used as an assay kit, and Gly-Pro-Aminomethylcoumarin was used as a fluorescent substrate. That is, the fluorescence emitted from aminomethylcoumarin (AMC), which was freed by cleaving the peptide bond by DPP, was analyzed at an excitation wavelength of 350 to 360 nm and an emission wavelength of 450 to 465 nm to measure the DPP4 inhibitory activity.
More specifically, DPP Assay Buffer (10×) was dissolved in HPLC-grade pure water, thereby preparing 1× solution. 120 μl of DPP4 (human recombinant) contained in each glass vial was mixed with 480 μl of 1× assay buffer. 120 μl of Gly-Pro-AMC, in which 5 mM H-Gly-Pro was conjugated to AMC, was dissolved in 2.88 ml assay buffer to produce DPP substrate. As a positive control, vildagliptin and saxagliptin, which have a similar structure to the derivative of the present disclosure, known as DPP4 inhibitor, were dissolved in 500 μl of assay buffer to make 1 mM, and the result was used in the reaction. As an experimental group, 10 μl each of adamantyl derivatives KUgt-102 and KUgt-103 was used in the reaction. […] The reaction was repeated three times.
After the reaction, fluorescence was measured at an excitation wavelength of 350-360 nm and an emission wavelength of 450-465 nm using a fluorescence microplate reader (SPECTRA MAX Gemini EM, USA). Thereafter, the inhibitory activity was calculated as follows.

[1] = system: A549, a human lung cancer cell line; assay: WST cell viability assay, A549; format: cell-based; settings: for IC50: 48 h, A549, human lung cancer, WST, read-out: Cell growth inhibition IC50
Method: (§1) After treating LLC, a mouse lung carcinoma cell line, and A549, a human lung cancer cell line, with KUgt-102 derivatives, cell viability was measured by water soluble tetrazolium (WST) cell viability assay.
(§2) The lung cancer cell lines LLC and A549 were attached to a 96-well plate at 5×10e^3 and 1×10e^4 cells/wells, respectively. The next day, the culture medium was removed, and they were added with new medium treated with the KUgt-102 derivative and evogliptin and saxagliptin, respectively, which have a structure similar to that of the derivative of the present disclosure known as a DPP4 inhibitor, as a positive control, in a concentration-dependent manner from 0.01 to 20 mM. Cells treated with the derivative and control group were cultured at 37° C. in 5% CO2. After 2 days, the cultured cells were treated with WST reagent (EZ-CYTOX, Dogen, Republic of Korea) at a final volume of 1:10 to analyze cell viability. Thereafter, the cultured plate was stored in an incubator at 37° C.
(§3) After culturing for 1 hour, the color change was measured at 450 nm using a microplate reader (SpectraMAX190, molecular Devices, CA, USA), and the measurement results are shown in FIGS. 2 and 3.

[2] = system: LLC, a mouse lung carcinoma cell line; assay: WST cell viability assay, LLC; format: cell-based; settings: 0.01 to 20 mM, 2 days; for IC50: 48 h, mouse lung carcinoma, WST, read-out: Cell growth inhibition IC50
Method: as §1, §2, §3

DPP4 inhibitory activity (DPP4 (human recombinant)) | IC50 ([1]; 0.01 to 20 mM, 2 days) | IC50 [2] | SMILES | DPP4 inhibitory activity compared with positive controls vildagliptin and saxagliptin (DPP4 (human recombinant)) | cell viability ([1]; A549, 0.01 to 20 mM, 2 days, FIG. 3) | anticancer activity relative to evogliptin and saxagliptin, based on the same amount ([1]; human lung cancer cell lines) | amount needed for effective killing effect compared to evogliptin and saxagliptin ([1]; human lung cancer cell lines, relative to evogliptin and saxagliptin) | cell viability ([2]; FIG. 2)
excellent DPP4 inhibitory activity | – | – | N[C@H](C(=O)N(CCO)CCO)C12CC3CC(CC(O)(C3)C1)C2 [KUgt-103, (S)-2-amino-2-((1r,3R,5R,7S)-3-hydroxyadamantan-1-yl)-N,N-bis(2-hydroxyethyl)acetamide] | – | – | – | – | –
excellent DPP4 inhibitory activity | 240 ± 10 µM | 330 ± 10 µM | N#C[C@@H]1CCCCN1C(=O)[C@@H](N)C12CC3CC(CC(O)(C3)C1)C2 [KUgt-102, (S)-1-((S)-2-amino-2-((1r,3R,5R,7S)-3-hydroxyadamantan-1-yl)acetyl)piperidine-2-carbonitrile] | higher inhibitory activity than vildagliptin and saxacliptin | inhibited cell viability in a concentration-dependent manner | about three times better anticancer activity | ≤ 30% | inhibited cell viability in a concentration-dependent manner
– | 900 ± 10 µM | 950 ± 10 µM | N#C[C@@H]1C[C@@H]2C[C@@H]2N1C(=O)[C@@H](N)C12CC3CC(CC(O)(C3)C1)C2 [Saxagliptin, saxagliptin, reference compound] | – | – | – | – | –
– | 750 ± 10 µM | 660 ± 10 µM | CC(C)(C)OC[C@@H]1C(=O)NCCN1C(=O)C[C@H](N)Cc1cc(F)c(F)cc1F [Evogliptin, evogliptin, reference compound] | – | – | – | – | –
